{"source": "patent US20100022444A1", "about": "“COMBINATION THERAPY FOR MODULATION OF ACTIVITY AND DEVELOPMENT OF CELLS AND TISSUES” (BodyBio, Inc., priority 2008, published 2010)", "origin": "cited, not measured here", "system": "mouse model of Bulbar ALS", "settings": "oral administration"}
{"molecule": "CCCC(=O)[O-].[Na+]", "note": "[sodium butyrate]", "values": [{"measurement": "acetylation of nuclear histone in neural tissues", "result": "increased acetylation of nuclear histone in neural tissues"}, {"measurement": "neurological phenotypes", "result": "successfully ameliorated neurological phenotypes"}]}
